US11873320B2 (REATA PHARMACEUTICALS HOLDINGS, LLC, priority 2013, dated 2024)
Read-outs that look alike come from different tables or passages of the source.

Experiments:
[1] = tested on: TNFα-induced NF-κB activation; experiment: TNFα-induced NF-κB luciferase reporter, HeLa/NF-κB-Luc cells; type: cell-based; conditions: Homo sapiens, 1 h pretreatment, TNFα 10 ng/mL 5 h
From the text: NF-κB is a transcription factor that plays a central role in the regulation of many immune and inflammatory responses.

[2] = tested on: Nrf2 protein expression in SK-N-SH cells; experiment: in-cell western NQO1 assay, SK-N-SH cells; type: cell-based; conditions: Homo sapiens, 72 h, 3 days incubation, read-out: EC50 for induction of Nrf2 protein expression in SK-N-SH cells
Experimental: HMOX1 protein was not detected in untreated or RTA 408-treated SH-SY5Y cells. […] The same amount of 63170 (54.6 nM) was required.
The EC50 was measured using an in-cell western NQO1 assay where the cells were incubated with the compound under evaluation for 3 days. After incubation with the compound of interest, the cells were reacted with mouse NQO1 antibody and then the next day the cells were reacted with IRDye-800CW-anti-mouse IgG antibody. The target signals were visualized and then analyzed.

[3] = tested on: glutathione levels; experiment: induction of glutathione levels, RAW264.7 mouse model; type: cell-based
From the text: Glutathione and NADPH are critical factors required for the maintenance of cellular redox capacity. […] Data shown are representative of two independent experiments.

[4] = tested on: IFNγ-induced NO production; experiment: IFNγ-induced NO production in RAW264.7 macrophages (Griess reagent); type: cell-based; conditions: Mus musculus
Experimental: (§1) Inhibition of IFNγ-induced NO production by AIMs is Nrf2-dependent (Dinkova-Kostova, 2005). […] Nitrite (NO2^−) levels in the media were measured as a surrogate for nitric oxide using the Griess reagent assay. Cell viability was assessed using the WST-1 assay. […] 63170, 63171, 63179, and 63189 are compounds of the formulas: […]

[5] = TGA-MS of solid forms; type: physicochemical; conditions: for hygroscopicity: indicated by TGA-MS; for mass loss in TGA-MS between 25 and 200° C.: traces of H2O
Experimental: The TGA was run with TA instruments, data were collected on a thermal balance (Q-5000, TA Instruments, New Castle, Del.) equipped with a data analyzer (Universal Analysis 2000, version 4.5A, TA Instruments, New Castle, Del.). During experiments, the furnace was purged with nitrogen at 60 mL/minute, while the balance chamber was purged at 40 mL/minute. Temperature of the TGA furnace was calibrated using curie points of […] and nickel. Sample size ranged from 2 to 20 mg, and a heating rate of 10° C./minute was used.
For TGA-MS, the thermogravimetric analysis part was the same as above. The mass of evolved gas was analyzed with […] GSD 301 T3 ThermoStar ([…] Vacuum, Asslar, Germany). The instrument was operated and data evaluated with Software Quadstar 32-bit (V7.01, Inficon, LI-9496 Balzers, Liechtenstein).

[6] = tested on: RAW264.7 cells; experiment: WST-1 cell viability, RAW264.7; type: cell-based; conditions: Mus musculus
Experimental: as §1

[7] = 2 h pre-treatment, 20 ng/mL IFNγ 24 h, read-out: IC50, suppression of IFNγ-induced NO production

| Compound | EC50 [2] [nM] | EC50 [3] [nM] | IC50 [4, 7] [nM] | further results |
| --- | --- | --- | --- | --- |
| CCC(=O)N[C@]12CCC(C)(C)C[C@H]1[C@H]1C(=O)C=C3[C@@]4(C)C=C(C#N)C(=O)C(C)(C)[C@@H]4CC[C@@]3(C)[C@]1(C)CC2 [compound 63189] | 102 | 16 | 7 ± 2 | IC50 [1]: 854 nM |
| CC1(C)CC[C@]2(NC(=O)C(C)(F)F)CC[C@]3(C)[C@H](C(=O)C=C4[C@@]5(C)C=C(C#N)C(=O)C(C)(C)[C@@H]5CC[C@]43C)[C@@H]2C1 [Form B] |  |  |  | hygroscopicity [5]: very slightly hygroscopic; mass loss in TGA-MS between 25 and 200° C. [5]: ~0.2 wt.-% |
| CC1(C)CC[C@]2(NC(=O)C(C)(F)F)CC[C@]3(C)[C@H](C(=O)C=C4[C@@]5(C)C=C(C#N)C(=O)C(C)(C)[C@@H]5CC[C@]43C)[C@@H]2C1 [Form A] |  |  |  | hygroscopicity [5]: slightly hygroscopic; mass loss in TGA-MS between 25 and 200° C. [5]: ~0.5 wt.-% |
| CC1(C)CC[C@]2(NC(=O)C(F)(F)F)CC[C@]3(C)[C@H](C(=O)C=C4[C@@]5(C)C=C(C#N)C(=O)C(C)(C)[C@@H]5CC[C@]43C)[C@@H]2C1 [compound 63171] | 122 | 23.2 | 6.9 ± 0.6 |  |
| CC(=O)N[C@]12CCC(C)(C)C[C@H]1[C@H]1C(=O)C=C3[C@@]4(C)C=C(C#N)C(=O)C(C)(C)[C@@H]4CC[C@@]3(C)[C@]1(C)CC2 [compound 63170] | 54.6 | 12.1 | 8 ± 3 | IC50 [1]: 953 nM |
| CC1(C)CC[C@]2(NC(=O)CC(F)(F)F)CC[C@]3(C)[C@H](C(=O)C=C4[C@@]5(C)C=C(C#N)C(=O)C(C)(C)[C@@H]5CC[C@]43C)[C@@H]2C1 [compound 63179] | 126 |  |  | IC50 ([4]; unit given as nm, read-out: IC50, suppression of IFNγ-induced NO production): 11 ± 2 nM |
| CC1(C)CC[C@]2(CO)CC[C@]3(C)[C@H](C(=O)C=C4[C@@]5(C)C=C(C#N)C(=O)C(C)(C)[C@@H]5CC[C@]43C)[C@@H]2C1 [compound 63355, reference compound] |  |  |  | IC50 [6]: 150 nM; IC50 ([4]; Table 15, read-out: NO IC50 (nM), RAW264.7): 0.63 ± 0.06 nM |
